Assay results as given in patent US20200061036A1, “ACECLIDINE ISOMERS AND SCALEMIC MIXTURES THEREOF FOR THE TREATMENT OF PRESBYOPIA” (Presbyopia Therapies, LLC, priority 2018, published 2020).

Legend:
subject = assay: Net gain in lines of visual acuity at 45 centimeters after binocular instillation of aceclidine enantiomer solutions (Example 1, prophetic); assay type: in vivo; conditions: for Net gain in lines of visual acuity versus baseline, monocularly: first figure of cell; for Net gain in lines of visual acuity versus baseline, binocularly: second figure of cell
Protocol: Solutions containing scalemic mixtures of or enantiomerically pure aceclidine in 1.50% w/v polysorbate 80, 1.2% w/v hydroxypropylmethyl cellulose, 0.1% w/v disodium ethylenediaminetetraacetic acid, 0.1% w/v sorbate in 0.9% w/v sodium chloride buffered saline at a pH of 6.5 were instilled, binocularly in a subject. The subject's visual acuity at 45 centimeters was then tested both monocularly and binocularly. Net gain in lines of visual acuity versus baseline monocularly/binocularly are shown in Table 1 below at 1, 2 and 5 hours post-instillation.

accommodation = conditions: cited from earlier work

| Compound | Net gain in lines of visual acuity versus baseline, monocularly (subject; 1 hour post-instillation) | Net gain in lines of visual acuity versus baseline, binocularly (subject; 1 hour post-instillation) | Net gain in lines of visual acuity versus baseline, monocularly (subject; 2 hours post-instillation) [lines] | Net gain in lines of visual acuity versus baseline, binocularly (subject; 2 hours post-instillation) [lines] | Net gain in lines of visual acuity versus baseline, monocularly (subject; 5 hours post-instillation) [lines] | Net gain in lines of visual acuity versus baseline, binocularly (subject; 5 hours post-instillation) [lines] | induced accommodation documented in presbyopes (accommodation; 2% concentration, presbyopes) [D] | induced accommodation (accommodation; as little as, with a range of variability) [D] |
| --- | --- | --- | --- | --- | --- | --- | --- | --- |
| CC(=O)OC1CN2CCC1CC2 (centres unmarked) [50/50, aceclidine] | 2.00 lines | 3.00 lines | 1.50 | 2.50 | 1.00 | 1.50 | – | – |
| CC(=O)OC1CN2CCC1CC2 (centres unmarked) [100/0, aceclidine] | 2.00 lines | 3.50 lines | 1.75 | 3.00 | 1.50 | 2.50 | – | – |
| CC[C@@H]1C(=O)OC[C@@H]1Cc1cncn1C [Pilocarpine, pilocarpine] | – | – | – | – | – | – | ≥ −5 | – |
| CC(=O)OC1CN2CCC1CC2 (centres unmarked) [aceclidine] | – | – | – | – | – | – | – | −0.37 |
| aceclidine [25/75] | 1.50/1.50 lines | 1.50/1.50 lines | 0.75 | 1.25 | 0.50 | 1.00 | – | – |
| aceclidine [62.5/22.5] | 1.40 lines | 3.20 lines | 1.70 | 2.70 | 1.20 | 1.60 | – | – |
| aceclidine [75/25] | 1.50 lines | 2.50 lines | 1.20 | 2.80 | 0.70 | 2.00 | – | – |
| aceclidine [87.5/12.5] | 1.75 lines | 3.25 lines | 1.40 | 2.90 | 0.90 | 2.25 | – | – |
